Source: patent US6417167B1, “Lyophilized compositions containing shingoglycolipid and process for preparing them” (Kirin Beer Kabushiki Kaisha, priority 1997, dated 2002)
In brackets after ≈: the same amount, converted by molar mass. Like-named read-outs stand apart in the source and are kept apart here.

Experiments:
Format in all cases: physicochemical
[1] = Selection of a solvent for the active component: solubility judged by naked eye; conditions: thermodynamic from solid, read-out: Judgment of solubility (by naked eye)
Procedure: First, 1 mg of the active component (KRN7000) was weighed and stirred in 100 ml of a variety of solvents (Table 3) in a heated bath to 80° C. for 20 minutes in order to form a solution having a concentration of 10 μg/ml. With respect to the solvents which were judged to have successfully dissolved 10 μg/ml of the active component, dissolution was further tried in the same manner as above in order to form a solution having a concentration of 100 μg/ml. With respect to the solvents which were judged to have successfully dissolved 100 μg/ml of the active component, dissolution was further tried in the same manner as above in order to form a solution having a concentration of 200 μg/ml. After cooling with running water, the solubility of the component was judged.
The solubility of the component was judged by the test described below. First, transparent colorless glass vials having a volume of 5 ml were charged with about 1.5 ml portion of each sample and sealed up. The vial was cleaned outside and placed beneath the white light source in a darkroom for observation with naked eye at the position of a luminous intensity of about 5,000 lux. When the sample was clear with no precipitates, it was judged that the active component was dissolved.

[2] = Optimal amount of Polysorbate 20: solubility of solutions after storage, by naked eye; design: key: +: not dissolved (or deposited); −: dissolved; conditions: KRN7000 200 μg/ml, stored as solution 25° C.
Procedure: (§1) Next, 20 mg of the active component (KRN7000) was weighed and stirred in 100 ml of the Polysorbate solutions having a variety of concentrations in a heated bath at 80° C. for 20 minutes in order to form a solution. After cooling with running water, the mixture was filtered through a 0.22 μm filter, and transparent colorless glass vials having a volume of 5 ml were charged with a 2 ml portion of each of a variety of solutions and sealed up.
These samples were stored at 25° C. for 2 weeks, and judged of their solubility. The samples judged in solution were further stored, and judged again of their solubility after 1 month.
(§2) The solubility was judged by cleaning the outside of the vial and placing it beneath the white light source in the darkroom for observation with naked eye at the position of a luminous intensity of about 5,000 lux. When the sample was clear with no precipitates, it was judged that the active component was dissolved.
In the table, the variations with the passage of time after storage represent the solubility when stored in the form of solution.

[3] = Lyophilized preparations with Polysorbate 20 alone: re-solubility immediately after lyophilization; conditions: KRN7000 200 μg/ml, reconstituted in 1 ml distilled water for injection
Procedure: as §1, with “bath to” for “bath at”, “a 1” for “a 2”, “and subjected to lyophilizaiton. Lyophilization was carried out under the condition of preliminary freezing at −40° C. for 2 hours and drying at −20° C. for 24 hours, 10° C. for 12 hours, and finally at 25° C. for 5 hours to give the lyophilized product. The degree of vacuum was set at 0.1 Torr or less during drying step.” for “and sealed up.”
After the lyophilization step, the lyophilized composition was reconstituted in 1 ml of distilled water for injection, left standing for 30 minutes, and solubility was judged when the foams generated on reconstituiton disappeared.
as §2, with “in a” for “in the”

**Q.** Which results are given for CCCCCCCCCCCCCCCCCCCCCCCCCC(=O)N[C@@H](CO[C@H]1O[C@H](CO)[C@H](O)[C@H](O)[C@H]1O)[C@H](O)[C@H](O)CCCCCCCCCCCCCC [KRN7000, (2S,3S,4R)-1-(α-D-galactopyranosyloxy)-2-hexacosanoylamino-3,4-octadecanediol]?
**A.** solubility at 20 min ([1]; 0.5% Cremophor, 80 °C, aqueous with cosolvent or surfactant or cyclodextrin, solvent 0.5% Cremophor, KRN7000 10 μg/ml): < 10 µg/mL; solubility at 20 min ([1]; 0.5% HCO 50, 80 °C, aqueous with cosolvent or surfactant or cyclodextrin, solvent 0.5% HCO 50, KRN7000 10 μg/ml): < 10 µg/mL; solubility at 20 min ([1]; 0.5% HCO 60, 80 °C, aqueous with cosolvent or surfactant or cyclodextrin, solvent 0.5% HCO 60, KRN7000 10 μg/ml): < 10 µg/mL; solubility at 20 min ([1]; 0.5% Polyoxamer 188, 80 °C, aqueous with cosolvent or surfactant or cyclodextrin, solvent 0.5% Polyoxamer 188, KRN7000 10 μg/ml): < 10 µg/mL; solubility at 20 min ([1]; 0.5% Polysorbate 20, 80 °C, aqueous with cosolvent or surfactant or cyclodextrin, solvent 0.5% Polysorbate 20, KRN7000 10 μg/ml): > 10 µg/mL; solubility at 20 min ([1]; 0.5% Polysorbate 20, 80 °C, aqueous with cosolvent or surfactant or cyclodextrin, solvent 0.5% Polysorbate 20, KRN7000 100 μg/ml): > 100 µg/mL; solubility at 20 min ([1]; 0.5% Polysorbate 20, 80 °C, aqueous with cosolvent or surfactant or cyclodextrin, solvent 0.5% Polysorbate 20, KRN7000 200 μg/ml): > 200 µg/mL; solubility at 20 min ([1]; 0.5% Polysorbate 80, 80 °C, aqueous with cosolvent or surfactant or cyclodextrin, solvent 0.5% Polysorbate 80, KRN7000 10 μg/ml): > 10 µg/mL; solubility at 20 min ([1]; 0.5% Polysorbate 80, 80 °C, aqueous with cosolvent or surfactant or cyclodextrin, solvent 0.5% Polysorbate 80, KRN7000 100 μg/ml): 10 to 100 µg/mL (≈ 11.7 to 117 µM); solubility at 20 min ([1]; 1N HCl, 80 °C, simulated gastric fluid, solvent 1N HCl, KRN7000 10 μg/ml): < 10 µg/mL; solubility at 20 min ([1]; 1N NaOH, 80 °C, aqueous buffer, solvent 1N NaOH, KRN7000 10 μg/ml): < 10 µg/mL; solubility at 20 min ([1]; Distilled water, 80 °C, water, solvent Distilled water, KRN7000 10 μg/ml): < 10 µg/mL; solubility at 20 min ([1]; Ethanol, 80 °C, organic solvent or mixture, solvent Ethanol, KRN7000 10 μg/ml): > 10 µg/mL; solubility at 20 min ([1]; Ethanol, 80 °C, organic solvent or mixture, solvent Ethanol, KRN7000 100 μg/ml): > 100 µg/mL; solubility at 20 min ([1]; Ethanol, 80 °C, organic solvent or mixture, solvent Ethanol, KRN7000 200 μg/ml): > 200 µg/mL; solubility at 20 min ([1]; Glycerol, 80 °C, organic solvent or mixture, solvent Glycerol, KRN7000 10 μg/ml): > 10 µg/mL; solubility at 20 min ([1]; Glycerol, 80 °C, organic solvent or mixture, solvent Glycerol, KRN7000 100 μg/ml): 10 to 100 µg/mL (≈ 11.7 to 117 µM); solubility at 20 min ([1]; Macrogol 400, 80 °C, organic solvent or mixture, solvent Macrogol 400, KRN7000 10 μg/ml): > 10 µg/mL; solubility at 20 min ([1]; Macrogol 400, 80 °C, organic solvent or mixture, solvent Macrogol 400, KRN7000 100 μg/ml): 10 to 100 µg/mL (≈ 11.7 to 117 µM); solubility at 20 min ([1]; Propylene glycol, 80 °C, organic solvent or mixture, solvent Propylene glycol, KRN7000 10 μg/ml): > 10 µg/mL; solubility at 20 min ([1]; Propylene glycol, 80 °C, organic solvent or mixture, solvent Propylene glycol, KRN7000 100 μg/ml): 10 to 100 µg/mL (≈ 11.7 to 117 µM); Variation with the passage of time after storage (by naked eye) ([2]; Polysorbate 20 0.1%, 2 weeks): +; Variation with the passage of time after storage (by naked eye) ([2]; Polysorbate 20 0.2%, 2 weeks): +; Variation with the passage of time after storage (by naked eye) ([2]; Polysorbate 20 0.3%, 1 month): +; Variation with the passage of time after storage (by naked eye) ([2]; Polysorbate 20 0.3%, 2 weeks): −; Variation with the passage of time after storage (by naked eye) ([2]; Polysorbate 20 0.5%, 1 month): +; Variation with the passage of time after storage (by naked eye) ([2]; Polysorbate 20 0.5%, 2 weeks): −; Variation with the passage of time after storage (by naked eye) ([2]; Polysorbate 20 1.0%, 1 month): +; Variation with the passage of time after storage (by naked eye) ([2]; Polysorbate 20 1.0%, 2 weeks): −; Variation with the passage of time after storage (by naked eye) ([2]; Polysorbate 20 2.0%, 1 month): +; Variation with the passage of time after storage (by naked eye) ([2]; Polysorbate 20 2.0%, 2 weeks): −; Variation with the passage of time after storage (by naked eye) ([2]; Polysorbate 20 4.0%, 1 month): +; Variation with the passage of time after storage (by naked eye) ([2]; Polysorbate 20 4.0%, 2 weeks): −; Variation with the passage of time after storage (by naked eye) ([2]; Polysorbate 20 8.0%, 1 month): +; Variation with the passage of time after storage (by naked eye) ([2]; Polysorbate 20 8.0%, 2 weeks): −; Re-solubility immediately after lyophilization (by naked eye) ([3]; Polysorbate 20 0.5%): + (not dissolved (or deposited)); Re-solubility immediately after lyophilization (by naked eye) ([3]; Polysorbate 20 1.0%): + (not dissolved (or deposited)); Re-solubility immediately after lyophilization (by naked eye) ([3]; Polysorbate 20 2.0%): + (not dissolved (or deposited))
